From patent US12258344B2, “Azaaromatic amide derivatives for the treatment of cancer” (SHENZHEN FORWARD PHARMACEUTICALS CO., LTD., priority 2019, dated 2025)
pIC50: −log10 of the molar value.

Columns and labels:
[1] = molecular target: BaF3 (HER2/P780insGSP) (Homo sapiens, UniProt P04626, cells depend on it, form not given); assay: Test 22: HER2 exon 20 inserted P780insGSP cell proliferation test; format: cell-based; conditions: 72 hours, Cell Titer-Glo, read-out: test 22 IC50
Procedure: Test 22: HER2 Exon 20 Inserted P780insGSP Cell Proliferation Test
The engineered cell line BaF3 (HER2/P780insGSP) was constructed by the inventor himself (for the method of cell line construction, see Jingrui Jiang et al., Cancer Res. 2005 Oct. 1; 65 (19): 8964-74; Jacqulyne P. Robichaux et al., Nat Med. 2018 May; 24 (5): 638-646). BaF3 (HER2/P780insGSP) was cultured in RPMI 1640 medium containing 10% fetal bovine serum and 2 mM glutamine, and the cells were grown at 37° C. in a humidified incubator with 5% CO2.
(§1) The number of viable cells in the culture was measured according to the protocol described in Promega's Cell Titer-Glo Luminescent cell Viability Assay (Promega catalog number #G7570). 90 μl of cells (3,000 cells/well) were cultured in growth medium in a Corning black transparent bottom 96-well plate, and cultured in a 5% CO2 humidified incubator at 37° C. overnight. The compound serially diluted in 100% DMSO was added to the cells using a pipette, and the cells were incubated for another 72 hours. 100 μl of the mixed Cell Titer-Glo reagent was added to the cells in the 96-well culture plate to lyse the cells and mix gently. Subsequently, the […] was detected on the Envision microplate detector to obtain the data of each compound. Finally, the data was input into a suitable software package (such as Prism) for curve fitting analysis.

[2] = molecular target: T1, HER4 kinase (Homo sapiens, UniProt Q15303); assay: Test 24: HER4 kinase inhibition test; format: biochemical
T1 construct: made in house
T1 sequence (Q15303 26-1308): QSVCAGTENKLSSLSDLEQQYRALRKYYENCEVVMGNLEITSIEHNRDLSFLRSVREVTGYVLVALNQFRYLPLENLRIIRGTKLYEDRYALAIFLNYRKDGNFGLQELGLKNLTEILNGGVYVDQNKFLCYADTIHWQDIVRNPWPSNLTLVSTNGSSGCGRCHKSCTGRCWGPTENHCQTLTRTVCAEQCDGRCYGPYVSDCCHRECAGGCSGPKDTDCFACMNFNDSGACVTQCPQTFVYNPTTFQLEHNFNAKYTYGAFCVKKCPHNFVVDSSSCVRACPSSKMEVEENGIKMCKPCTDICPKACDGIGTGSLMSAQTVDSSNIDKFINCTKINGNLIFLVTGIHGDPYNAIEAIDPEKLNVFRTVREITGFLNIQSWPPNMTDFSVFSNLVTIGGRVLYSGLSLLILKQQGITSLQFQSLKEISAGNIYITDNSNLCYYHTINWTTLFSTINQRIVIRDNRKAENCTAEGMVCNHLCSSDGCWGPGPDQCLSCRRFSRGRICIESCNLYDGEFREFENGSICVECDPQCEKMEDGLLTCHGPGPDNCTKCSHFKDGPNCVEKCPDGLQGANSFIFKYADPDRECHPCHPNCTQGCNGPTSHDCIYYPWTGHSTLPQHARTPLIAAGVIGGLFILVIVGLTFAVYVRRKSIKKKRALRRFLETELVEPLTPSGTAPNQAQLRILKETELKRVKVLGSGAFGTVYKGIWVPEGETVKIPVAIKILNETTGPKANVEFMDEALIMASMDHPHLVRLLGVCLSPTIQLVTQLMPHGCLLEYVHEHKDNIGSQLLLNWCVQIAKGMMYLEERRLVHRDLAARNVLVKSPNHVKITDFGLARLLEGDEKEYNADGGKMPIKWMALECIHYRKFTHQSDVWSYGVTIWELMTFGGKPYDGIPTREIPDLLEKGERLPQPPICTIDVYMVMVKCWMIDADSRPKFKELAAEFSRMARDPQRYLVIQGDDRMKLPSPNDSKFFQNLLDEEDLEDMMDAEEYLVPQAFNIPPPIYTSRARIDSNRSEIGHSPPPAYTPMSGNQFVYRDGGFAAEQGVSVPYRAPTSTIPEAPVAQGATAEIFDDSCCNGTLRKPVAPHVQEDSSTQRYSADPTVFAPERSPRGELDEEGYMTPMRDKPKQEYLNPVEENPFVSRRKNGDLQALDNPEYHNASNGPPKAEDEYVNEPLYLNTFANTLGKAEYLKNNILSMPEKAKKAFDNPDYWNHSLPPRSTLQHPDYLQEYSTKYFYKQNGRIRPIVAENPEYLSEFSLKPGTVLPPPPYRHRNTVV
Procedure: Test 24: HER4 Kinase Inhibition Test
Next, 100% DMSO was used to formulate the test compound into a solution of 50× at the final test concentration, and then sequentially diluted to 10 test concentrations; 100 μL of 100% DMSO was added to the blank control well as a negative control group without the compound and kinase. […] Finally, 10 μL of 2.5× peptide solution was added to the 384-well plate. After incubating at 25° C. for 10 minutes, 25 μL of reaction stop solution was added. Finally, the absorbance was detected on the Envision microplate detector to obtain the data of each compound. Finally, the data was input into a suitable software package (such as Prism) for curve fitting analysis.

[3] = molecular target: T2, BaF3 (EGFR/N771insH) (Homo sapiens, UniProt P00533, cells depend on it, form not given); assay: Test 16: EGFR exon 20 inserted N771insH cell proliferation test; format: cell-based; conditions: BaF3 (EGFR/N771insH), 72 hours, Cell Titer-Glo; read-out: Test 16 IC50
T2 construct: Test 16 IC50 (nM); other: BaF3 (EGFR/N771insH), 72 hours, Cell Titer-Glo

[4] = molecular target: T3, BaF3 (EGFR/N771insH) (Homo sapiens, UniProt P00533, cells depend on it, form not given); assay: as above; format: cell-based; conditions: N771insH, D770insNPG, V774insHV (tests 16-18), in words
T3 construct: other: N771insH, D770insNPG

[5] = molecular target: BaF3 (HER2/G776insVC) (Homo sapiens, UniProt P04626, cells depend on it, form not given); assay: Test 23: HER2 exon 20 inserted G776insVC cell proliferation test; format: cell-based; conditions: 72 hours, Cell Titer-Glo, read-out: test 23 IC50
Chain of BaF3 (HER2/G776insVC) (P04626 with tags, fused parts or gaps DUP772-775): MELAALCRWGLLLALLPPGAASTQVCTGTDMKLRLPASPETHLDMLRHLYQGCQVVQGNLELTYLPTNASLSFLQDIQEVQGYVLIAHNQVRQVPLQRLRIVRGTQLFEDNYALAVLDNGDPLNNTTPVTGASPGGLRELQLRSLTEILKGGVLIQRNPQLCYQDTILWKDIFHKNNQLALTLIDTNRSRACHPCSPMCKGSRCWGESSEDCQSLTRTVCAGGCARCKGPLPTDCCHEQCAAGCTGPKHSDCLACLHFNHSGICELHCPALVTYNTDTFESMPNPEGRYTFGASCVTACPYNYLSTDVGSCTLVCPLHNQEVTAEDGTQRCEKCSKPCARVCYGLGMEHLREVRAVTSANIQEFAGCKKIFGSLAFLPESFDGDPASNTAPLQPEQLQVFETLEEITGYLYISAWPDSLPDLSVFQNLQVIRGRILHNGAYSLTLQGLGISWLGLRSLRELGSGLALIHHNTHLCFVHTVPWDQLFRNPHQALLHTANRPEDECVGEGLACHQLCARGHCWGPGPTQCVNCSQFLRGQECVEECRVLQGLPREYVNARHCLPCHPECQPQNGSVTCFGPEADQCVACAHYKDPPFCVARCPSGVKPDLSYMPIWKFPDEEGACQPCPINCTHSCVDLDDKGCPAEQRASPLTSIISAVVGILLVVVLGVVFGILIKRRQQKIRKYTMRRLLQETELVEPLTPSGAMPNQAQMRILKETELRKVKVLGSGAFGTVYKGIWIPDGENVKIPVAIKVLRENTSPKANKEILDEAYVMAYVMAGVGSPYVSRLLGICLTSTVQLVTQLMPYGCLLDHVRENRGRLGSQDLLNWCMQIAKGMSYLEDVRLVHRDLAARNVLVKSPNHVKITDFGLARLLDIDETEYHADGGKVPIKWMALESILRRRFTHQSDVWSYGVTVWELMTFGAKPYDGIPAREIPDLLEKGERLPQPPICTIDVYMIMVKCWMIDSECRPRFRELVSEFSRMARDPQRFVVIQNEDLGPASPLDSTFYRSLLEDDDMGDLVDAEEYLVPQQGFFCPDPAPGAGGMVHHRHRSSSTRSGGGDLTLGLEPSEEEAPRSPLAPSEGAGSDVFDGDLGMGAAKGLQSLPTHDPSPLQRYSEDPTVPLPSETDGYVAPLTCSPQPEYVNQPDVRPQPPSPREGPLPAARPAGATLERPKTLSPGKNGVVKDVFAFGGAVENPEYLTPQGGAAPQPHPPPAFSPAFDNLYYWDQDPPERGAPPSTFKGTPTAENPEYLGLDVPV
Procedure: Test 23: HER2 Exon 20 Inserted G776insVC Cell Proliferation Test
as §1

[6] = molecular target: BaF3 (EGFR/L861Q) (Homo sapiens, UniProt P00533, cells depend on it, form not given); assay: Test 20: EGFR/L861Q mutant cell line proliferation test; format: cell-based; conditions: 72 hours, Cell Titer-Glo, read-out: Test 20 IC50
Procedure: as §1, with “The compound serially diluted in 100% DMSO was added to the cells using a pipette, and the cells were incubated for another 72 hours.” left out

[7] = molecular target: T4, BaF3 (HER2/A775insYVMA) (Homo sapiens, UniProt P04626, cells depend on it, form not given); assay: Test 21: HER2 exon 20 inserted A775insYVMA cell proliferation test; format: cell-based; conditions: BaF3 (HER2/A775insYVMA), 72 hours, Cell Titer-Glo; read-out: test 21 IC50
T4 construct: other: BaF3 (HER2/A775insYVMA), 72 hours, Cell Titer-Glo
T4 sequence (P04626 with tags, fused parts or gaps DUP778-780): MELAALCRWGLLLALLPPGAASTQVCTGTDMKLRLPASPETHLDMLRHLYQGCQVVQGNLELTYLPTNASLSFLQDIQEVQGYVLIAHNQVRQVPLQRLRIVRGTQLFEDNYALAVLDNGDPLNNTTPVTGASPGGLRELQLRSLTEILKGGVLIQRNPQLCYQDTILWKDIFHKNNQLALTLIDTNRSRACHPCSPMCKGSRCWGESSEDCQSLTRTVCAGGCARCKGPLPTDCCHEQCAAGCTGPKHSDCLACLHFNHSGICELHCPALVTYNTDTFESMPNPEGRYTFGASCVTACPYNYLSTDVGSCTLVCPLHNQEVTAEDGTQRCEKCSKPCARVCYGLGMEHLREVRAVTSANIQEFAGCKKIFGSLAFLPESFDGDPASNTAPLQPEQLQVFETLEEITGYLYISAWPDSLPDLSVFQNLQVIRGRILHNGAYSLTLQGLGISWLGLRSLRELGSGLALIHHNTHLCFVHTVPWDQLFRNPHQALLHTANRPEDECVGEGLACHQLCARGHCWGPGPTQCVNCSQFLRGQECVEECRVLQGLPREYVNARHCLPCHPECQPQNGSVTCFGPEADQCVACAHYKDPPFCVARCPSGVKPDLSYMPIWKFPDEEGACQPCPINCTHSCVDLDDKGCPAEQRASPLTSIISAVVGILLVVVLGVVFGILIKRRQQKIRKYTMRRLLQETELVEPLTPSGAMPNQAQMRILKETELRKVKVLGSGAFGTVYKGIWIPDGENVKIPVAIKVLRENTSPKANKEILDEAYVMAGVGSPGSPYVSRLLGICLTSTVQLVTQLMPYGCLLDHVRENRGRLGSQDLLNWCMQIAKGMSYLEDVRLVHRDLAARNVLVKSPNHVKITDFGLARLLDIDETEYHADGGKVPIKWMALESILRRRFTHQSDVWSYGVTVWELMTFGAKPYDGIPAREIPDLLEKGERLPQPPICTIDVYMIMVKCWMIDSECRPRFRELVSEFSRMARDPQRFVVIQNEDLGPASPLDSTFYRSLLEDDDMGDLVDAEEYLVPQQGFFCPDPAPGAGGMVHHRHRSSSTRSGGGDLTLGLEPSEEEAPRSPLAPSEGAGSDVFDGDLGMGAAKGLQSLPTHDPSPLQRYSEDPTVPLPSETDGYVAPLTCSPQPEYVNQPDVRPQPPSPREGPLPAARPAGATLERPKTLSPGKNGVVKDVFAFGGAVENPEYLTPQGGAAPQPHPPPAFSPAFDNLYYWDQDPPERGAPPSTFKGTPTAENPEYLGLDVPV
Procedure: Test 21: HER2 Exon 20 Inserted A775insYVMA Cell Proliferation Test
as §1

[8] = molecular target: BaF3 (EGFR/V774insHV) (Homo sapiens, UniProt P00533, cells depend on it, form not given); assay: Test 18: EGFR exon 20 inserted V774insHV cell proliferation test; format: cell-based; conditions: 72 hours, Cell Titer-Glo, read-out: Test 18 IC50
Procedure: as §1

[9] = molecular target: T5, BaF3 (EGFR/D770insSVD) (Homo sapiens, UniProt P00533, DUP768-770, cells depend on it); assay: Test 13: EGFR exon 20 inserted D770insSVD cell proliferation test; format: cell-based; conditions: BaF3 (EGFR/D770insSVD), 72 hours, Cell Titer-Glo; read-out: Test 13 IC50
T5 construct: Test 13 IC50 (nM); other: BaF3 (EGFR/D770insSVD), 72 hours, Cell Titer-Glo
Procedure, shortened: (§2)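 BaF3 cells expressing EGFR D770insSVD, 3,000 cells/well, seeded overnight at 37° C, 5% CO2, then exposed to serially diluted compound for 72 h. Viable cells read by CellTiter-Glo luminescence; values from curve fitting.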

[10] = molecular target: T6, BaF3 (EGFR/D770insSVD) (Homo sapiens, UniProt P00533, cells depend on it, form not given); assay: as above; format: cell-based; conditions: A763insFQEA, V769insASV, D770insSVD (tests 13-15), in words
T6 construct: other: A763insFQEA, V769ins
Procedure, shortened: as §2

[11] = molecular target: BaF3 (EGFR/D770insNPG) (Homo sapiens, UniProt P00533, cells depend on it, form not given); assay: Test 17: EGFR exon 20 inserted D770insNPG cell proliferation test; format: cell-based; conditions: 72 hours, Cell Titer-Glo, read-out: Test 17 IC50
Procedure: Test 17: EGFR Exon 20 Inserted D770insNPG Cell Proliferation Test
as §1

[12] = molecular target: T7, BaF3 (EGFR/S768I) (Homo sapiens, UniProt P00533, cells depend on it, form not given); assay: Test 19: EGFR/S768I mutant cell line proliferation test; format: cell-based; conditions: BaF3 (EGFR/S768I), 72 hours, Cell Titer-Glo; read-out: Test 19 IC50
T7 construct: other: BaF3 (EGFR/S768I), 72 hours, Cell Titer-Glo
Procedure: (§3) Test 19: EGFR/S768I Mutant Cell Line Proliferation Test
as §1

[13] = molecular target: T8, BaF3 (EGFR/S768I) (Homo sapiens, UniProt P00533, cells depend on it, form not given); assay: as above; format: cell-based; conditions: EGFR S768I and EGFR L861Q (tests 19-20), in words
T8 construct: other: EGFR S768I and EGFR L8
Procedure: as §3, §1

[14] = molecular target: BaF3 (EGFR/V769insASV) (Homo sapiens, UniProt P00533, DUP767-769, cells depend on it); assay: Test 15: EGFR exon 20 inserted V769insASV cell proliferation test; format: cell-based; conditions: 72 hours, Cell Titer-Glo, read-out: Test 15 IC50
Procedure, shortened: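 BaF3 cells expressing EGFR V769insASV (3000 cells/well) plated overnight, then exposed to DMSO-diluted compound series for 72 h at 37 °C, 5% CO2. Viability by CellTiter-Glo luminescence; values from curve fitting.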

[15] = molecular target: BaF3 (EGFR/A763insFQEA) (Homo sapiens, UniProt P00533, INS763FQEA, cells depend on it); assay: Test 14: EGFR exon 20 inserted A763insFQEA cell proliferation test; format: cell-based; conditions: 72 hours, Cell Titer-Glo, read-out: Test 14 IC50
Procedure, shortened: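 BaF3 cells dependent on EGFR A763insFQEA, plated at 3,000 cells/well and cultured overnight at 37 °C, 5% CO2, then exposed to compound serial dilutions in DMSO for 72 h. Viable cells quantified by CellTiter-Glo luminescence; values from curve fitting.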

Chain of BaF3 (HER2/P780insGSP) (P04626 with tags, fused parts or gaps DELINS776-776VC): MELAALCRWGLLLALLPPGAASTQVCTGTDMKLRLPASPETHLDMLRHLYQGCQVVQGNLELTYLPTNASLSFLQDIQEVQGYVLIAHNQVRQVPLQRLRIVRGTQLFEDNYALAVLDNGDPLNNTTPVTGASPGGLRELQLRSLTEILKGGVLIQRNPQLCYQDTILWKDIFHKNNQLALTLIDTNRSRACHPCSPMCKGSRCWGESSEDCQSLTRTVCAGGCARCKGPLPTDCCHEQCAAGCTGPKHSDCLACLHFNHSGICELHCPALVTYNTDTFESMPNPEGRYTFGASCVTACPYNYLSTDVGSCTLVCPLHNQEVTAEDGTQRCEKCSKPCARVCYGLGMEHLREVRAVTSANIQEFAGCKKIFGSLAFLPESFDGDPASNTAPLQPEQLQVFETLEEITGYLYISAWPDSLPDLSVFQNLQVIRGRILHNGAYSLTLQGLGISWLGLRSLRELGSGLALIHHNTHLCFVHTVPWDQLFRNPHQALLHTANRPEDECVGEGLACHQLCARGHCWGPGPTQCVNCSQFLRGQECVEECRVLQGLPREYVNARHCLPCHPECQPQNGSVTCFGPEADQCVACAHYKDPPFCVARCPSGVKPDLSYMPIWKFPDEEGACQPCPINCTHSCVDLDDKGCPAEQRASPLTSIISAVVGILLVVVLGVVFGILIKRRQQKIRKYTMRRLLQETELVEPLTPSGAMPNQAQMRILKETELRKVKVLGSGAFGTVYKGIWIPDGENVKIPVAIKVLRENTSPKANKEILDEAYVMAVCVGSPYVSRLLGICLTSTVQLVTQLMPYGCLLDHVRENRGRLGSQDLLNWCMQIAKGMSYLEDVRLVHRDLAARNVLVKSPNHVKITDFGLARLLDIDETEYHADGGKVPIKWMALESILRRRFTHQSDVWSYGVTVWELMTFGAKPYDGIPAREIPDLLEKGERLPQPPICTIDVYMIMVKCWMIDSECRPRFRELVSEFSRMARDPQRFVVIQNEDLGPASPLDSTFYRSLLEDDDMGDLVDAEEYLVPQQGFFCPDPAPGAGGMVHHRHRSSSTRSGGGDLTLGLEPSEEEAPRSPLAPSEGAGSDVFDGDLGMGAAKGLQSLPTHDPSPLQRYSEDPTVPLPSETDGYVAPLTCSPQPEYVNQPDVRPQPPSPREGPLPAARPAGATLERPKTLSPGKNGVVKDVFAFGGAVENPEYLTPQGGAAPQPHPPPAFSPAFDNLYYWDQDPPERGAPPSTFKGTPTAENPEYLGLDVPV

## C=CC(=O)Nc1cc(Nc2ncnc(-c3cn(C)c4ccccc34)n2)c(OC)cc1N(C)CCN(C)C [Compound 16]
[1]
  GI50: 1.64 nM
[2]; HER4 kinase
  IC50 value lower than that of Osimertinib (AZD9291): about 1 fold
[2]; HER4 kinase inhibition test, read-out: Test 12 HER4 IC50
  pIC50: 7.54
[3]
  GI50: 8.67 nM
[4]
  cell activity compared with Osimertinib (AZD9291) against EGFR exon 20 insertion mutations: significantly superior cell activity over Osimertinib (AZD9291)
[5]
  GI50: 12 nM
[6]
  GI50: 21.6 nM
[7]
  GI50: 7.67 nM
[8]
  GI50: 7.59 nM
[9]
  GI50: 35.8 nM
[10]
  cell activity compared with Osimertinib (AZD9291) against EGFR exon 20 insertion mutations: significant superior cell activity over Osimertinib (AZD9291)
[11]
  GI50: 4.69 nM
[12]
  GI50: 8.63 nM
[13]
  activity compared with Osimertinib (AZD9291) against EGFR S768I and EGFR L861Q mutations: superior activity over Osimertinib (AZD9291)
[14]
  GI50: 24.8 nM
[15]
  GI50: 12.8 nM
